Assay results as given in patent US20260345573A1, “METHOD OF TREATMENT WITH ILOPERIDONE” (Vanda Pharmaceuticals Inc., priority 2023, published 2026).
“Also recorded” adds a separate entry of the source.

Columns and labels:
Assay type in all cases: in vivo, human
[1] = Study 3101: serum urate (uric acid) in subjects with acute schizophrenia, by SLC2A9 rs7442295 genotype
Protocol: (§1) A study is performed to evaluate the efficacy and safety of iloperidone compared with placebo and active control (ziprasidone) in subjects with acute schizophrenia (“Study 3101”). Patients are randomized to receive one of iloperidone at a dose of 24 mg/day given in a divided dose as 12 mg twice daily (bid), active comparator ziprasidone, or placebo. […] Uric acid results are converted to SI units using the conversion 1 mg/dL=59.5 μmol/L.
Results are provided in Table 6 below, including an increase of 28.0 μmol/L for iloperidone compared to a decrease of 4.2 μmol/L in placebo groups.
Patient genotypes are obtained via a commercial 500k SNP Gene Chip Human Mapping Array. To test the hypothesis of altered urate serum levels in association with variants in SLC2A9, linear models for SLC2A9 variants are performed on urate at baseline levels (corrected for PCs, age, sex) followed by samples collected at end of study (EOS).

[2] = Study 3201: serum urate in patients with acute manic episodes associated with bipolar I disorder, by SLC2A9 rs7442295 genotype and sex; conditions: for LS Mean Change (SE) in serum urate from baseline: 24 mg/day oral (12 mg bid)
Protocol: (§2) A multi-center, randomized, double-blind, placebo-controlled study is performed to evaluate the safety and efficacy of iloperidone for four (4) weeks in the treatment of patients with acute manic episodes associated with bipolar I disorder (“Study 3201”). Patients in the study are randomized to orally receive either iloperidone at a dose of 24 mg/day given in a divided dose as 12 mg twice daily (bid), or matched placebo.
These increases are illustrated in FIG. 1 using solid data points.
To test the hypothesis of altered urate serum levels in association with variants in the SLC2A9 gene, whole genome sequencing is conducted from blood samples, genotype status is obtained through standard data analysis, and linear models for SLC2A9 variants are performed on urate concentration in samples collected at baseline (corrected for PCs, age, sex) and samples collected at the end of the study (EOS).
As shown in FIGS. 3-4, the rs7442295 variant of interest has a statistically significant effect on iloperidone-induced change in serum urate levels from baseline to Day 28 in patients with bipolar disorder. FIG. 3 illustrates individual patient changes in serum urate (in μmol/L) from baseline to Day 28, grouped according to treatment group (iloperiodone or placebo) and carrier status for variant rs7442295, while FIG. 4 illustrates mean serum levels for at patient evaluations conducted at baseline and Day 28, separated according to treatment group (iloperidone or placebo) and patient carrier status for rs7442295. The significant interaction affecting change is particularly observed between genotype*sex*treatment (full model: Multiple R-squared: 0.09251, Adjusted R-squared: 0.07078, F-statistic: 4.256 on 8 and 334 DF, p=0.00006942).
This observation is statistically significant when comparing genotypes at BOS as well as when comparing GG with AG and AA genotypes between treatment and placebo group in both males and females combined. Table 2 (below) provides mean change from baseline to Day 28 by treatment group and carrier status for variant rs7442295, and Table 3 (below) provides LS mean change in serum urate from baseline to Day 28 evaluations for serum urate by treatment group and carrier status for variant rs7442295) (SD=standard deviation).

[3] = Studies 3201 and 3101 (Examples 1 and 2), conclusions on serum urate
Protocol: as §2, §1

O=C1Cc2cc(CCN3CCN(c4nsc5ccccc45)CC3)c(Cl)cc2N1 [ziprasidone]
LS mean change from baseline to endpoint in serum urate ([1]; ziprasidone active comparator arm, schizophrenia): 13.1 µmol/L
Increase in serum urate relative to iloperidone (in words) ([1]; ziprasidone arm, schizophrenia): approximately half of that seen in with iloperidone treatment

COc1cc(C(C)=O)ccc1OCCCN1CCC(c2noc3cc(F)ccc23)CC1 [Iloperidone, 1-[4-[3-[4-(6-flouro-1,2-benzisoxazol-3-yl)-1-piperidinyl]propoxy]-3-methoxyphenyl]ethanone]
Percentage of patients with serum urate above ULN ([2]; Baseline, female, genotype AA (4/42), ULN 394 μmol/l): 9.5%
Percentage of patients with serum urate above ULN ([2]; Baseline, female, genotype AG (3/39), ULN 394 μmol/l): 7.7%
Percentage of patients with serum urate above ULN ([2]; Baseline, female, genotype GG (0/7), ULN 394 μmol/l): 0.0%
Serum urate at baseline (SE) ([2]; Baseline, iloperidone group, bipolar mania, n=206): 323.0 (77.13), 206 μmol/L
Percentage of patients with serum urate above ULN ([2]; Baseline, male, genotype AA (6/60), ULN 453 μmol/l): 10.0%
Percentage of patients with serum urate above ULN ([2]; Baseline, male, genotype AG (1/41), ULN 453 μmol/l): 2.4%
Percentage of patients with serum urate above ULN ([2]; Baseline, male, genotype GG (1/12), ULN 453 μmol/l): 8.3%
Percentage of patients with serum urate above ULN ([2]; Baseline, male, genotype GG (1/12), ULN 453 μmol/l, listed as iloperidone): about 8.3%
LS Mean Difference (95% CI) in serum urate change vs placebo ([2]; Day 7, bipolar mania): 1.3 (−9.29, 11.88) μmol/L
LS Mean Change (SE) in serum urate from baseline ([2]; Day 7, bipolar mania, n=199): −2.7 (−4.07), 199 μmol/L
LS Mean Difference (95% CI) in serum urate change vs placebo ([2]; Day 14, bipolar mania): 15.3 (4.50, 26.15) μmol/L
LS Mean Change (SE) in serum urate from baseline ([2]; Day 14, bipolar mania, n=173): 12.6 (−4.28), 173 μmol/L
LS Mean Difference (95% CI) in serum urate change vs placebo ([2]; Day 21, bipolar mania): 21.0 (8.91, 33.18) μmol/L
LS Mean Change (SE) in serum urate from baseline ([2]; Day 21, bipolar mania, n=157): 19.1 (−5.24), 157 μmol/L
LS Mean Change (SE) in serum urate from baseline ([2]; Day 28 (endpoint), bipolar mania, n=142): 27.2 (−4.93), 142 μmol/L
LS Mean Change (SE) in serum urate from baseline ([2]; Day 28 (endpoint), bipolar mania, n=142, listed as iloperidone): 27.2 µmol/L
Fold greater increase in serum urate from baseline compared to placebo ([2]; Day 28, bipolar mania): 4 fold
LS Mean Difference (95% CI) in serum urate change vs placebo ([2]; Day 28, bipolar mania): 27.1 (14.94, 39.20) μmol/L
LS Mean Difference (95% CI) in serum urate change vs placebo ([2]; Day 28, genotype AA, female): 27.85 (2.93, 52.76) μmol/L
LS Mean Difference (95% CI) in serum urate change vs placebo ([2]; Day 28, genotype AA, male): 35.52 (12.82, 58.22) μmol/L
LS Mean Difference in serum urate change vs placebo ([2]; Day 28, genotype AA, 95% CI (14.82, 49)): 31.91 µmol/L
LS Mean Difference (95% CI) in serum urate change vs placebo ([2]; Day 28, genotype AG, female): −7.9 (−34.82, 19.03) μmol/L
LS Mean Difference (95% CI) in serum urate change vs placebo ([2]; Day 28, genotype AG, male): 40.79 (14.61, 66.96) μmol/L
LS Mean Difference in serum urate change vs placebo ([2]; Day 28, genotype AG, 95% CI (−4.18, 33.86)): 14.84 µmol/L
LS Mean Difference (95% CI) in serum urate change vs placebo ([2]; Day 28, genotype GG, female): 3.08 (−50.97, 57.13) μmol/L
LS Mean Difference (95% CI) in serum urate change vs placebo ([2]; Day 28, genotype GG, male): 102.96 (48.93, 156.99) μmol/L
LS Mean Difference in serum urate change vs placebo ([2]; Day 28, genotype GG, 95% CI (18.91, 94.99)): 56.95 µmol/L
Mean change from baseline in serum urate ([2]; Day 28, 24 mg/day, all genotypes, bipolar mania): 33.4 µmol/L
LS Mean Difference (95% CI) in serum urate change vs placebo ([2]; EOS (LOCF), genotype AA, female): 15.97 (−6.71, 38.64) μmol/L
LS Mean Difference (95% CI) in serum urate change vs placebo ([2]; EOS (LOCF), genotype AA, male): 18.99 (−0.89, 38.86) μmol/L
LS Mean Difference (95% CI) in serum urate change vs placebo ([2]; EOS (LOCF), genotype AG, female): −1.4 (−25.85, 23.06) μmol/L
LS Mean Difference (95% CI) in serum urate change vs placebo ([2]; EOS (LOCF), genotype AG, male): 19.58 (−2.91, 42.08) μmol/L
LS Mean Difference (95% CI) in serum urate change vs placebo ([2]; EOS (LOCF), genotype GG, female): 4.54 (−50.43, 59.52) μmol/L
LS Mean Difference (95% CI) in serum urate change vs placebo ([2]; EOS (LOCF), genotype GG, male): 88.45 (38.7, 138.21) μmol/L
LS Mean Difference in serum urate change vs placebo ([2]; EOS, genotype AA, 95% CI (3.19, 33.28)): 18.23 µmol/L
LS Mean Difference in serum urate change vs placebo ([2]; EOS, genotype AG, 95% CI (−8.27, 25.48)): 8.61 µmol/L
LS Mean Difference in serum urate change vs placebo ([2]; EOS, genotype GG, 95% CI (18.68, 92.13)): 55.4 µmol/L
Effect on serum urate (in words) ([2]; bipolar mania, vs placebo): statistically significant increase in serum urate; also recorded: associated with increases in serum urate compared to placebo
Iloperidone-associated increase in serum urate in rs7442295-G/G individuals (in words) ([2]; genotype GG, bipolar mania): significant in individuals who are homozygous for the rs7442295 (G) allele
Increase in serum urate in G/G patients (in words) ([2]; genotype GG, bipolar mania): nearly twice as large
Serum urate relative to ULN in G/G individuals treated with iloperidone (in words) ([2]; genotype GG, especially males, ULN 453 (male), 394 (female) μmol/l): a significant number of individuals (particularly homozygous G/G males) exceed the upper limit of normal (ULN); also recorded: above ULN value in individuals that are homozygous (GG) for the rs7442295 (G) allele
Fold increase in percentage of patients with high urate levels (above ULN) ([2]; male, genotype GG, baseline to end of study): approximately 4 fold
Serum urate at Day 0 (SE) ([1]; Day 0, iloperidone group, schizophrenia, n=300): 318.3 (73.19), 300 μmol/L
LS Mean Difference (95% CI) in serum urate change vs placebo ([1]; Day 14, schizophrenia): 18.4 (6.55. 29.93) μmol/L
LS Mean Change (SE) in serum urate from baseline ([1]; Day 14, 24 mg/day (12 mg bid), schizophrenia, n=276): 15.5 (58.85), 276 μmol/L
LS Mean Difference (95% CI) in serum urate change vs placebo ([1]; Day 28, genotype AA): 10.05 (14.90, 35.97) μmol/L
LS Mean Difference (95% CI) in serum urate change vs placebo ([1]; Day 28, genotype AG): 30.02 (−2.86, 57.63) μmol/L
LS Mean Difference (95% CI) in serum urate change vs placebo ([1]; Day 28, genotype GG): 52.4 (0.33, 104.45) μmol/L
Change from baseline in uric acid relative to ziprasidone arm (in words) ([1]; Day 28, schizophrenia): more than twice the change from baseline observed in the ziprasidone arm
Fold greater increase from baseline in blood uric acid compared to placebo ([1]; Day 28, schizophrenia): roughly 4 fold
LS Mean Difference (95% CI) in serum urate change vs placebo ([1]; Day 28, schizophrenia): 23.8 (9.16. 37.96) μmol/L
LS Mean Change (SE) in serum urate from baseline ([1]; Day 28, iloperidone 24 mg/day (12 mg bid), schizophrenia, n=206): 28.0 (4.05), 206 μmol/L
LS Mean Change (SE) in serum urate from baseline ([1]; Day 28, iloperidone 24 mg/day (12 mg bid), schizophrenia, n=206, listed as iloperidone): 28.0 µmol/L
Iloperidone-induced change in serum urate with GG genotype, by sex (in words) ([1]; genotype GG, male schizophrenia patients): particular pronounced in male schizophrenia patients
Effect on serum urate compared to placebo (in words) ([1]; schizophrenia, ANCOVA): statistically significant increase in serum urate
Effect on serum urate compared to placebo (in words) ([3]; bipolar disorder and schizophrenia): associated with increases in serum urate compared to placebo
Increase in serum urate in G/G patients (in words) ([3]; genotype G/G, both studies): nearly twice as large
